Data on one molecule can be found in patent publication US12521439B2, “Methods and materials for modulating Nrf2 pathway” (The General Hospital Corporation, priority 2019, dated 2026).

In one test the target is Keap1 (Homo sapiens, UniProt Q14145). The experiment in a line: Keap1 immunoblotting / immunoprecipitation. Format: cell-based. Also noted: Keap1 protein levels in U87 cells treated with the indicated doses of OBT for 8 hours; endogenous in cells; host or cells: U87, MDA-MB-231 (endogenous); 293T and MDA-MB-231 also transfected with HA-Keap1. The procedure: Immunoblotting and Immunoprecipitation analysis: Antibodies against PDI, GAPDH, HA-tag, Ubiquitin, Keap1 and beta-actin (Cell Signaling) as well as secondary Horseradish peroxidase (HRP) conjugated antibodies: sheep anti-mouse IgG-HRP and donkey antirabbit IgG-HRP (Amersham Pharmacia Biotech) were used in this study. For protein expression analysis, cells were lysed in RIPA buffer (150 mM NaCl, 50 mM TRIS, pH 8.0, 1% NP-40, 0.5% deoxycholate, 0.1% SDS) supplemented with 1× protease inhibitors cocktail (Roche). Proteins were quantified using a Bradford protein determination assay (Bio-Rad) followed by electrophoresis in 10% NuPAGE Bis-Tris gels (Life Technologies) and transfer to nitrocellulose membranes (Bio-Rad). Membranes were incubated overnight with antibodies in 1-5% non-fat milk powder in PBS/0.5% TWEEN. Proteins were detected with SuperSignal West Pico Chemiluminescent Substrate (Pierce). For immunoprecipitation assays, cells were lysed in RIPA buffer supplemented with protease inhibitors and 2 mM N-ethylmaleimide. Cell lysates were pre-cleared with protein A agarose beads (Cell Signaling) and incubated with anti-HA antibody with gentle rocking overnight at 4° C. followed by incubation with protein A agarose beads and subsequent washing and elution steps. Electrophoresis, transfer and immunoblot analysis was performed as described above.
In general terms: A western blot detects proteins with antibodies after separation by electrophoresis.

The next test relates to GSCs (GBM8 and BT07). The test can be described thus: Multiplexed quantitative (TMT) proteomics after OBT treatment. Format: cell-based, human. Conditions: 20 h after subtoxic dose, two GSC lines. On the procedure:
Quantitative Proteomics: Cell pellets were lysed in a buffer of 75 mM NaCl, 50 mM HEPES pH 8.5, 10 mM sodium pyrophosphate, 10 mM sodium fluoride, 10 mM β-glycerophosphate, 10 mM sodium orthovanadate, 10 mM PMSF, Roche complete mini EDTA free protease inhibitors (1 tablet per 20 ml), and 3% SDS. Lysis was achieved by passing the suspension through a 21-gauge needle 20 times. Proteins were prepared for proteomics analysis as described previously. […] Twelve fractions were analyzed by multiplexed quantitative proteomics performed on an Orbitrap Fusion mass spectrometer (Thermo Scientifc) using a Simultaneous Precursor Selection (SPS) based MS3 method. […] For the cell line samples only MS3 with an average signal-to-noise value of larger than 40 per reporter ion as well as with an isolation specificity of larger than 0.75 were considered for quantification. […] A two-step normalization of the protein TMT-intensities was performed by first normalizing the protein intensities over all acquired TMT channels for each protein based on the median average protein intensity calculated for all proteins. To correct for slight mixing errors of the peptide mixture from each sample a median of the normalized intensities was calculated from all protein intensities in each TMT channel and the protein intensities were normalized to the median value of these median intensities. […]

The next test has as its system cancer cells. The test can be described thus: Cancer cell death with OBT, JQ1, OBT-JQ1. Format: cell-based. The conditions noted are these: OBT combined with JQ1, FIG. 22. On the procedure: (§1) Cell viability: Cells were plated in 96-well plates and treated with the corresponding compounds. Cell viability was measured by adding 25 μl/well of CellTiter-Glo (Promega) followed by 10 minutes incubation and transfer to a white 96-well plate. Bioluminescence was quantified using Synergy HTX multimode reader (Biotek).

A further test concerns MDA-MB231 cells. The test can be described thus: Cell viability (CellTiter-Glo), MDA-MB231. Format: cell-based, human. The conditions noted are these: co-treatment MLN4924 (1 μM), three days. On the procedure: Cell culture: MDA-MB-231 and U87 (U87-MG) cells were obtained from the American Type Culture Collection (ATCC). 293T human embryonic kidney fibroblasts were provided by Dr. Xandra Breakefield (Massachusetts General Hospital). All three cell lines were grown in Dulbecco's modified Eagle medium supplemented with 10% fetal bovine serum (Gemini Bio-products), 100 U penicillin, and 0.1 mg/mL streptomycin (Sigma). All cells were maintained at 37° C. in a humidified 5% CO2 incubator. GSCs were obtained from tumor tissues of GBM patients following surgical resection, under approval from the corresponding Institutional Review Board. These cells have been previously characterized (ref. 37-39) and were maintained in culture as neurospheres in Neurobasal medium (Gibco) supplemented with heparin (2 μg/mL; Sigma) and recombinant EGF (20 ng/mL) and bFGF-2 (10 ng/mL; Peprotech). Human Astrocytes were obtained from ScienCell and cultured in Astrocytes Medium (ScienCell)
as §1
A general note: Cellular ATP, detected with luciferase, serves as a proxy for viable cell number.

Test [1] relates to tumour-infiltrating CD4+ and CD8+ T cells. The experiment in a line: Ex vivo stimulation of tumour-infiltrating T cells (anti-CD3/anti-CD28). The conditions noted are these: cells from OBT-treated tumours, cultured 3 days. Format: cell-based, mice. The text has this:
To confirm reversion of T cell exhaustion and activation of cytotoxic T cells by OBT, tumour-infiltrating CD4+ and CD8+ T cells (n=3) were isolated and cultured in the presence of anti-CD3 and anti-CD28 antibodies to mimic an antigenic stimulation.

Keap1, sequence (Q14145 whole entry): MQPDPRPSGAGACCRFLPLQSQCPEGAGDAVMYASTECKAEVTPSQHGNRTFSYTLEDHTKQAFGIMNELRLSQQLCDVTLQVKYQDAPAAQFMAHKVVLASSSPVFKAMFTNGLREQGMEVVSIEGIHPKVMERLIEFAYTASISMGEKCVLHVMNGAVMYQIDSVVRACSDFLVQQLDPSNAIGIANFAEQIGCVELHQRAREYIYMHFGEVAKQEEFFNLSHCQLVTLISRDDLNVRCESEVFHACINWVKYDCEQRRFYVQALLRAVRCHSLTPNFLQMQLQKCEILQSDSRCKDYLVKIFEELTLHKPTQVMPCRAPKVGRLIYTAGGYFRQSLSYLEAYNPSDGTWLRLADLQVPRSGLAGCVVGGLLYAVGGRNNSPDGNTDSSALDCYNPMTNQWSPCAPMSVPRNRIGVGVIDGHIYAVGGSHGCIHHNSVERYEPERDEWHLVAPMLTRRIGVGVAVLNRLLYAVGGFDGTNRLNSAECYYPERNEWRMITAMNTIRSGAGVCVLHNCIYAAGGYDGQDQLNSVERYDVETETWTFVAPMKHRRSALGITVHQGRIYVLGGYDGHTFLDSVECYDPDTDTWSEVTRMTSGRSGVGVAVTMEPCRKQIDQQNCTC

As for `COC1=CC(=O)C(O)=C/C1=C/C=C/c1ccccc1` [OBT, (Z)-2-hydroxy-5-methoxy-4-((E)-3-phenylallylidene)cyclohexa-2,5-dien-1-one], the “ubiquitination of Keap1” value at Keap1 (293T, OBT 2 μM, 6 hours, IP anti-HA) is listed as “resulted in ubiquitination of Keap1”. For the same molecule, the “OBT-mediated degradation of Keap1 with CUL3 downregulation or proteasome inhibitor” value at Keap1 (MDA-MB-231, OBT 3 μM, 6 hours) is given as “prevented”. At Keap1 (U87), the “time at which Keap1 restored to physiological levels” value is on record as 24 h. Also, the “earliest time of Keap1 decrease” value at Keap1 (U87, following treatment with OBT) was 4 h. Moreover, the Keap1 protein levels result on Keap1 (U87, 1 μM time course, indicated doses 8 hours) was “time- and dose-dependent decrease”. In the test with GSCs (GBM8 and BT07), the “heme oxygenase 1 (HMOX1; HO1) protein change” value is “top upregulated protein”. In the test on cancer cells, the “interaction with JQ1” value was “synergizes”. The “cell death with neddylation inhibitor MLN4924” value with MDA-MB231 cells is “protection against cell death”. In addition, in test [1], the “response of CD4+ T cells to antigenic stimulus” value is listed as “no change” and the “response of CD8+ T cells to antigenic stimulus (proliferation, Ki67, granzyme B)” value is recorded as “significantly more responsive”.
